Data: patent publication US20070010671A1, “Novel quinazoline derivatives and methods of treatment related to the use thereof” (priority 2003, published 2007)

biological target: MCH receptor (Homo sapiens, UniProt Q99705); assay: High throughput functional screening FLIPR/FDSS6000: inhibition of MCH-evoked intracellular Ca2+ changes; assay type: cell-based; details: class by percent of control at 10^-7 M or IC50
Procedure, shortened: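 Antagonism was measured as inhibition of calcium responses to 50 nM MCH, monitored 290 s at ex 488/em 530 nm on FLIPR or FDSS6000. Beforehand, cells bearing a constitutively active MCH receptor received Fluo4-AM (4 μM, 1 h, 37 °C) with probenecid, and test compound for 3 min.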

Compound	class
CN(C)c1nc(N[C@H]2CC[C@@H](NC(=S)NC(=O)/C=C/c3ccccc3)CC2)nc2ccccc12 [compound 326]	3 (Class 3: The value of percent of control at 10^−7 M was more than 60% or the value of IC50 was more than 200 nM.)
CN(C)c1nc(N[C@H]2CC[C@@H](NC(=S)Nc3ccc(/N=N/c4ccccc4)cc3)CC2)nc2ccccc12 [compound 394]	3 (Class 3: The value of percent of control at 10^−7 M was more than 60% or the value of IC50 was more than 200 nM.)
CN(C)c1nc(N[C@H]2CC[C@@H](CNC(=S)Nc3ccc(C#N)cc3)CC2)nc2ccccc12 [compound 584]	3 (Class 3: The value of percent of control at 10^−7 M was more than 60% or the value of IC50 was more than 200 nM.)
CN(C)c1nc(N[C@H]2CC[C@@H](NC(=S)Nc3cc(F)cc(F)c3)CC2)nc2ccccc12 [compound 224]	3 (Class 3: The value of percent of control at 10^−7 M was more than 60% or the value of IC50 was more than 200 nM.)
Cc1cccc(NC(=O)NC[C@H]2CC[C@@H](Nc3nc(N(C)C)c4ccccc4n3)CC2)c1C [compound 428, N-[(cis-4-{[4-(dimethylamino)quinazolin-2-yl]amino}cyclohexyl)methyl]-N′-(2,3-dimethylphenyl)urea]	1 (Class 1: The value of percent of control at 10^−7 M was less than 40% or the value of IC50 was less than 50 nM.)
COc1ccc(CNC(=O)NC[C@H]2CC[C@@H](Nc3nc(N(C)C)c4ccccc4n3)CC2)cc1 [compound 449]	3 (Class 3: The value of percent of control at 10^−7 M was more than 60% or the value of IC50 was more than 200 nM.)
CN(C)c1nc(N[C@H]2CC[C@@H](CNC(=S)NC(C)(C)CC(C)(C)C)CC2)nc2ccccc12 [compound 614]	3 (Class 3: The value of percent of control at 10^−7 M was more than 60% or the value of IC50 was more than 200 nM.)
CN(C)c1nc(N[C@H]2CC[C@@H](CNC(=S)Nc3cccc(C(F)(F)F)c3)CC2)nc2ccccc12 [compound 618]	3 (Class 3: The value of percent of control at 10^−7 M was more than 60% or the value of IC50 was more than 200 nM.)
CN(C)c1nc(N[C@H]2CC[C@@H](CNC(=S)Nc3ccc(NC(=O)OC(C)(C)C)cc3)CC2)nc2ccccc12 [compound 664]	3 (Class 3: The value of percent of control at 10^−7 M was more than 60% or the value of IC50 was more than 200 nM.)
CN(C)c1nc(N[C@H]2CC[C@@H](CNC(=O)Nc3c(Cl)cccc3C(F)(F)F)CC2)nc2ccccc12 [compound 488]	1 (Class 1: The value of percent of control at 10^−7 M was less than 40% or the value of IC50 was less than 50 nM.)
CN(C)c1nc(N[C@H]2CC[C@@H](CNC(=O)Nc3c(Cl)c(Cl)cc(Cl)c3Cl)CC2)nc2ccccc12 [compound 472, N-[(cis-4-{[4-(dimethylamino)quinazolin-2-yl]amino}cyclohexyl)methyl]-N′-(2,3,5,6-tetrachlorophenyl)urea]	2 (Class 2: The value of percent of control at 10^−7 M was from 40% to 60% or the value of IC50 was from 50 nM to 200 nM.)
COc1ccc(CCNC(=S)NC[C@H]2CC[C@@H](Nc3nc(N(C)C)c4ccccc4n3)CC2)cc1OC [compound 665, N-[2-(3,4-dimethoxyphenyl)ethyl]-N′-[(cis-4-{[4-(dimethylamino)quinazolin-2-yl]amino}cyclohexyl)methyl]thiourea]	2 (Class 2: The value of percent of control at 10^−7 M was from 40% to 60% or the value of IC50 was from 50 nM to 200 nM.)
CN(C)c1nc(N[C@H]2CC[C@@H](CNC(=O)Nc3ccc(-c4ccccc4)cc3)CC2)nc2ccccc12 [compound 562]	3 (Class 3: The value of percent of control at 10^−7 M was more than 60% or the value of IC50 was more than 200 nM.)
CN(C)c1nc(N[C@H]2CC[C@@H](CNC(=O)Nc3cc(F)cc4c3OCOC4)CC2)nc2ccccc12 [compound 769, N-[(cis-4-{[4-(dimethylamino)quinazolin-2-yl]amino}cyclohexyl)methyl]-N′-(6-fluoro-4H-1,3-benzodioxin-8-yl)urea]	2 (Class 2: The value of percent of control at 10^−7 M was from 40% to 60% or the value of IC50 was from 50 nM to 200 nM.)
CN(C)c1nc(N[C@H]2CC[C@@H](NC(=S)Nc3ccccc3C#N)CC2)nc2ccccc12 [compound 299]	3 (Class 3: The value of percent of control at 10^−7 M was more than 60% or the value of IC50 was more than 200 nM.)
COc1ccc(C)cc1NC(=S)N[C@H]1CC[C@@H](Nc2nc(N(C)C)c3ccccc3n2)CC1 [compound 221, N-(cis-4-{[4-(dimethylamino)quinazolin-2-yl]amino}cyclohexyl)-N′-(2-methoxy-5-methylphenyl)thiourea]	1 (Class 1: The value of percent of control at 10^−7 M was less than 40% or the value of IC50 was less than 50 nM.)
Cc1ccc(NC(=O)NC[C@H]2CC[C@@H](Nc3nc(N(C)C)c4ccccc4n3)CC2)cc1 [compound 457, N-[(cis-4-{[4-(dimethylamino)quinazolin-2-yl]amino}cyclohexyl)methyl]-N′-(4-methylphenyl)urea]	1 (Class 1: The value of percent of control at 10^−7 M was less than 40% or the value of IC50 was less than 50 nM.)
CN(C)c1nc(N[C@H]2CC[C@@H](CNC(=S)Nc3cc(Cl)c(Cl)c(Cl)c3Cl)CC2)nc2ccccc12 [compound 667]	3 (Class 3: The value of percent of control at 10^−7 M was more than 60% or the value of IC50 was more than 200 nM.)
CN(C)c1nc(N[C@H]2CC[C@@H](CNC(=S)NCc3cccc(Cl)c3)CC2)nc2ccccc12 [compound 729]	3 (Class 3: The value of percent of control at 10^−7 M was more than 60% or the value of IC50 was more than 200 nM.)
COc1cc([N+](=O)[O-])ccc1NC(=S)NC[C@H]1CC[C@@H](Nc2nc(N(C)C)c3ccccc3n2)CC1 [compound 644]	3 (Class 3: The value of percent of control at 10^−7 M was more than 60% or the value of IC50 was more than 200 nM.)
Cc1cccc(NC(=S)NC[C@H]2CC[C@@H](Nc3nc(N(C)C)c4ccccc4n3)CC2)c1C [compound 780]	3 (Class 3: The value of percent of control at 10^−7 M was more than 60% or the value of IC50 was more than 200 nM.)
CN(C)c1nc(N[C@H]2CC[C@@H](NC(=S)NCC(c3ccccc3)c3ccccc3)CC2)nc2ccccc12 [compound 290, N-(cis-4-{[4-(dimethylamino)quinazolin-2-yl]amino}cyclohexyl)-N′-(2,2-diphenylethyl)thiourea]	2 (Class 2: The value of percent of control at 10^−7 M was from 40% to 60% or the value of IC50 was from 50 nM to 200 nM.)

same assay, conditions: class by percent of control at 10^-7 M or by IC50; read-out: class

Compound	IC50 [nM]
CCCCc1ccc(NC(=O)N[C@H]2CC[C@@H](Nc3nc(N(C)C)c4ccccc4n3)CC2)cc1 [compound 832]	> 200
COC(=O)[C@H](CCSC)NC(=O)N[C@H]1CC[C@@H](Nc2nc(N(C)C)c3ccccc3n2)CC1 (relative stereo) [compound 41, methyl N-{[(cis-4-{[4-(dimethylamino)quinazolin-2-yl]amino}cyclohexyl)amino]carbonyl}methioninate]	< 50
Cc1ccc(NC(=O)N[C@H]2CC[C@@H](Nc3nc(N(C)C)c4ccccc4n3)CC2)c([N+](=O)[O-])c1 [compound 44]	> 200
CN(C)c1nc(N[C@H]2CC[C@@H](NC(=O)Nc3cc([N+](=O)[O-])ccc3F)CC2)nc2ccccc12 [compound 99]	> 200
COc1ccc(CNC(=O)N[C@H]2CC[C@@H](Nc3nc(N(C)C)c4ccccc4n3)CC2)cc1 [compound 48, N-(cis-4-{[4-(dimethylamino)quinazolin-2-yl]amino}cyclohexyl)-N′-(4-methoxybenzyl)urea]	50 to 200
CN(C)c1nc(N[C@H]2CC[C@@H](CNC(=S)Nc3ccc(F)cc3Br)CC2)nc2ccccc12 [compound 803]	> 200

same assay, conditions: class by percent of control at 10^−7 M or by IC50; read-out: class

Compound	IC50 [nM]
CN(C)c1nc(N[C@H]2CC[C@@H](NC(=O)c3ccnc(Oc4ccc(Cl)cc4)c3)CC2)nc2ccccc12 [Example 1074, 2-(4-chlorophenoxy)-N-(cis-4-{[4-(dimethylamino)quinazolin-2-yl]amino}cyclohexyl)isonicotinamide]	< 50
CN(C)c1nc(N[C@H]2CC[C@@H](C(=O)NCc3cc(C(F)(F)F)cc(C(F)(F)F)c3)CC2)nc2cc(F)c(F)cc12 [Example 1005, cis-N-[3,5-bis(trifluoromethyl)benzyl]-4-{[4-(dimethylamino)-6,7-difluoroquinazolin-2-yl]amino}cyclohexanecarboxamide]	> 200
Cc1ccc(OCC(=O)N[C@H]2CC[C@@H](Nc3nc(N(C)C)c4ccccc4n3)CC2)cc1C [Example 1076, N-(cis-4-{[4-(dimethylamino)quinazolin-2-yl]amino}cyclohexyl)-2-(3,4-dimethylphenoxy)acetamide]	> 200
CC(NC(=O)[C@H]1CC[C@@H](Nc2nc(N(C)C)c3ccccc3n2)CC1)c1ccc(Br)cc1 (relative stereo) [Example 1140, cis-N-[1-(4-bromophenyl)ethyl]-4-{[4-(dimethylamino)quinazolin-2-yl]amino}cyclohexanecarboxamide]	< 50
CN(C)c1nc(N[C@H]2CC[C@@H](NC(=O)COc3ccc(F)cc3)CC2)nc2ccccc12 [Example 1078, N-(cis-4-{[4-(dimethylamino)quinazolin-2-yl]amino}cyclohexyl)-2-(4-fluorophenoxy)acetamide]	< 50
CN(C)c1nc(N[C@H]2CC[C@@H](CNC(=O)C(O)c3cc(F)ccc3F)CC2)nc2ccccc12 (relative stereo) [Example 1094, 2-(2,5-difluorophenyl)-N-[(cis-4-{[4-(dimethylamino)quinazolin-2-yl]amino}cyclohexyl)methyl]-2-hydroxyacetamide]	> 200
COc1cccc(OCC(=O)N[C@H]2CC[C@@H](Nc3nc(N(C)C)c4ccccc4n3)CC2)c1 [Example 1081, N-(cis-4-{[4-(dimethylamino)quinazolin-2-yl]amino}cyclohexyl)-2-(3-methoxyphenoxy)acetamide]	< 50
